Experimental data published in the supplement of paper PMC10307832.

How the values were obtained:
Assay in all cases: relative viability (nuclei count vs DMSO), 5 days (fraction); higher = more cells survive
Apatinib + Palbociclib = compound: N#CC1(c2ccc(NC(=O)c3cccnc3NCc3ccncc3)cc2)CCCC1 [Apatinib] + CC(=O)c1c(C)c2cnc(Nc3ccc(N4CCNCC4)cn3)nc2n(C2CCCC2)c1=O [Palbociclib] (partner 0.5 µM)
In short: (§1)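 Lung cancer cell lines, seeded in 1536-well plates, were treated the following day by pin tool with a single drug or with five library-drug doses (not always all listed) in √10 steps on top of a fixed anchor-drug dose. Cells were fixed and nuclei stained in one step after 5 days, and nuclei were counted. Relative viability is the nuclei count for treated wells divided by that for vehicle wells, reported as medians of duplicate plates.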

Metformin + Linsitinib = compound: CN(C)C(=N)NC(=N)N [Metformin] + C[C@]1(O)C[C@@H](c2nc(-c3ccc4ccc(-c5ccccc5)nc4c3)c3c(N)nccn32)C1 [Linsitinib] (partner 1 µM)
In short: as §1

Apatinib + Dasatinib = compound: N#CC1(c2ccc(NC(=O)c3cccnc3NCc3ccncc3)cc2)CCCC1 [Apatinib] + Cc1nc(Nc2ncc(C(=O)Nc3c(C)cccc3Cl)s2)cc(N2CCN(CCO)CC2)n1 [Dasatinib] (partner 0.075 µM)
In short: as §1

Metformin + Bortezomib = compound: CN(C)C(=N)NC(=N)N [Metformin] + CC(C)C[C@H](NC(=O)[C@H](Cc1ccccc1)NC(=O)c1cnccn1)B(O)O [Bortezomib] (partner 0.002 µM)
In short: as §1

Row | Cell Line | relative viability (Apatinib + Palbociclib; first compound 0.08 µM) | relative viability (Apatinib + Palbociclib; first compound 0.253 µM) | relative viability (Apatinib + Palbociclib; first compound 0.8 µM) | relative viability (Apatinib + Palbociclib; first compound 2.53 µM) | relative viability (Apatinib + Palbociclib; first compound 8 µM) | relative viability (Metformin + Linsitinib; first compound 10 µM) | relative viability (Metformin + Linsitinib; first compound 31.62 µM) | relative viability (Metformin + Linsitinib; first compound 100 µM) | relative viability (Metformin + Linsitinib; first compound 316.23 µM) | relative viability (Metformin + Linsitinib; first compound 1000 µM) | relative viability (Apatinib + Dasatinib; first compound 0.08 µM) | relative viability (Apatinib + Dasatinib; first compound 0.253 µM) | relative viability (Apatinib + Dasatinib; first compound 0.8 µM) | relative viability (Apatinib + Dasatinib; first compound 2.53 µM) | relative viability (Apatinib + Dasatinib; first compound 8 µM) | relative viability (Metformin + Bortezomib; first compound 10 µM) | relative viability (Metformin + Bortezomib; first compound 31.62 µM) | relative viability (Metformin + Bortezomib; first compound 100 µM) | relative viability (Metformin + Bortezomib; first compound 316.23 µM) | relative viability (Metformin + Bortezomib; first compound 1000 µM)
1 | NCI-H2087 | 0.231 | 0.256 | 0.248 | 0.266 | 0.178 | 0.609 | 0.908 | 0.805 | 0.712 | 0.782 | 0.929 | 0.747 | 0.763 | 0.685 | 0.524 | 0.564 | 0.791 | 0.691 | 0.786 | 0.744
2 | ABC-1 |  | 1.02 | 0.663 | 0.531 | 0.583 |  | 0.675 | 0.971 | 0.307 | 0.325 |  | 0.631 | 0.492 | 0.509 | 0.484 |  | 0.294 | 0.334 | 0.277 | 0.344
3 | PC-14 | 0.555 | 0.619 | 0.493 | 0.611 | 0.33 | 1.03 | 0.955 | 0.916 | 0.918 | 1.03 | 0.284 | 0.238 | 0.203 | 0.208 | 0.178 | 0.818 | 0.943 | 0.767 | 0.906 | 0.82
4 | LOU-NH91 | 0.549 | 0.508 | 0.526 | 0.58 | 0.531 | 1.01 | 0.876 | 0.986 | 1.09 | 0.905 | 0.505 | 0.552 | 0.498 | 0.528 | 0.471 | 0.515 | 0.504 | 0.511 | 0.56 | 0.474
5 | LU99A | 0.505 | 0.489 | 0.383 | 0.339 | 0.328 | 0.493 | 0.491 | 0.466 | 0.377 | 0.514 | 0.526 | 0.565 | 0.523 | 0.486 | 0.416 | 0.96 | 1.06 | 0.988 | 0.903 | 1.04
6 | NCI-H1355 | 0.379 | 0.394 | 0.367 | 0.378 | 0.366 | 0.782 | 0.783 | 0.756 | 0.731 | 0.854 | 0.682 | 0.791 | 0.687 | 0.621 | 0.614 | 1.1 | 1.18 | 1.14 | 1.17 | 1.24
7 | NCI-H2023 | 0.381 | 0.402 | 0.354 | 0.376 | 0.307 |  | 0.687 | 0.806 |  | 0.515 | 0.566 | 0.639 | 0.536 | 0.392 | 0.358 |  | 1.03 | 0.964 |  | 1.1
8 | NCI-H2347 | 0.469 | 0.407 | 0.452 | 0.384 | 0.392 | 0.753 | 0.89 | 0.973 | 0.862 | 0.943 | 0.343 | 0.26 | 0.371 | 0.276 | 0.352 | 1.09 | 1.1 | 1.23 | 1.09 | 0.641
9 | LC-2-ad | 0.476 | 0.501 | 0.516 | 0.436 | 0.356 |  | 0.716 | 0.628 | 0.695 | 0.678 | 0.718 | 0.774 | 0.511 | 0.391 | 0.4 |  | 1.01 | 0.766 | 0.756 | 0.926
